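Where inhibition never reached the appropriate level, the endpoint shown equals the highest concentration tested. Otherwise, values were interpolated linearly from a five-concentration, 48-hour dose response in 96-well plates. GI50 marks 50% less growth. TGI is the concentration that stops growth completely.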
Assays:
Experiment in all cases: DTP human tumour cell line panel, 48 h
BT-549 breast = test system: BT-549 breast
SF-268 CNS = test system: SF-268 CNS
UO-31 renal = test system: UO-31 renal
HS 578T breast = test system: HS 578T breast
HCT-116 colon = test system: HCT-116 colon
UACC-62 melanoma = test system: UACC-62 melanoma
NCI/ADR-RES ovarian = test system: NCI/ADR-RES ovarian
OVCAR-5 ovarian = test system: OVCAR-5 ovarian
EKVX NSCLC = test system: EKVX NSCLC
OVCAR-4 ovarian = test system: OVCAR-4 ovarian
HOP-92 NSCLC = test system: HOP-92 NSCLC
COLO 205 colon = test system: COLO 205 colon
A549 NSCLC = test system: A549 NSCLC
LOX IMVI melanoma = test system: LOX IMVI melanoma
U251 CNS = test system: U251 CNS
OVCAR-8 ovarian = test system: OVCAR-8 ovarian
HOP-62 NSCLC = test system: HOP-62 NSCLC
RXF 393 renal = test system: RXF 393 renal
NCI-H460 lung = test system: NCI-H460 lung
ACHN renal = test system: ACHN renal
HT29 colon = test system: HT29 colon
HCC-2998 colon = test system: HCC-2998 colon
MDA-MB-231 breast = test system: MDA-MB-231 breast
UACC-257 melanoma = test system: UACC-257 melanoma
NCI-H226 lung = test system: NCI-H226 lung
PC-3 prostate = test system: PC-3 prostate
MALME-3M melanoma = test system: MALME-3M melanoma
NCI-H23 lung = test system: NCI-H23 lung
DU-145 prostate = test system: DU-145 prostate
MDA-MB-435 = test system: MDA-MB-435
KM12 colon = test system: KM12 colon
CAKI-1 renal = test system: CAKI-1 renal
NCI-H522 lung = test system: NCI-H522 lung
SK-MEL-5 melanoma = test system: SK-MEL-5 melanoma
CCRF-CEM leukemia = test system: CCRF-CEM leukemia
T-47D breast = test system: T-47D breast
SK-MEL-28 melanoma = test system: SK-MEL-28 melanoma
SNB-19 CNS = test system: SNB-19 CNS
MOLT-4 leukemia = test system: MOLT-4 leukemia
SF-295 CNS = test system: SF-295 CNS
786-0 renal = test system: 786-0 renal
M14 melanoma = test system: M14 melanoma
SR leukemia = test system: SR leukemia
RPMI-8226 leukemia = test system: RPMI-8226 leukemia
SN12C renal = test system: SN12C renal
A498 renal = test system: A498 renal
IGROV1 ovarian = test system: IGROV1 ovarian
K-562 leukemia = test system: K-562 leukemia
HL-60(TB) leukemia = test system: HL-60(TB) leukemia
SK-MEL-2 melanoma = test system: SK-MEL-2 melanoma
OVCAR-3 ovarian = test system: OVCAR-3 ovarian
MCF7 breast = test system: MCF7 breast
SK-OV-3 ovarian = test system: SK-OV-3 ovarian
SNB-75 CNS = test system: SNB-75 CNS
SW-620 colon = test system: SW-620 colon
SF-539 CNS = test system: SF-539 CNS
TK-10 renal = test system: TK-10 renal
HCT-15 colon = test system: HCT-15 colon

COc1cc2ncn(-c3cc(OCc4cccs4)c(C(N)=O)s3)c2cc1OC
GI50 (BT-549 breast): 4.67 µM
TGI (BT-549 breast): > 25 µM
GI50 (SF-268 CNS): 1.95 µM
TGI (SF-268 CNS): > 25 µM
GI50 (UO-31 renal): 2.77 µM
TGI (UO-31 renal): > 25 µM
GI50 (HS 578T breast): 5.94 µM
TGI (HS 578T breast): > 25 µM
GI50 (HCT-116 colon): 1.68 µM
TGI (HCT-116 colon): > 25 µM
GI50 (UACC-62 melanoma): 1.33 µM
TGI (UACC-62 melanoma): > 16.8 µM
GI50 (NCI/ADR-RES ovarian): 2.22 µM
TGI (NCI/ADR-RES ovarian): > 25 µM
GI50 (OVCAR-5 ovarian): 2.55 µM
TGI (OVCAR-5 ovarian): > 25 µM
GI50 (EKVX NSCLC): 7.93 µM
TGI (EKVX NSCLC): > 25 µM
GI50 (OVCAR-4 ovarian): 7.97 µM
TGI (OVCAR-4 ovarian): > 25 µM
GI50 (HOP-92 NSCLC): 4.38 µM
TGI (HOP-92 NSCLC): > 22 µM
GI50 (COLO 205 colon): 1.11 µM
TGI (COLO 205 colon): > 13.9 µM
GI50 (A549 NSCLC): 1.87 µM
TGI (A549 NSCLC): > 17.5 µM
GI50 (LOX IMVI melanoma): 1.19 µM
TGI (LOX IMVI melanoma): > 19.2 µM
GI50 (U251 CNS): 1.48 µM
TGI (U251 CNS): > 25 µM
GI50 (OVCAR-8 ovarian): 1.52 µM
TGI (OVCAR-8 ovarian): > 17 µM
GI50 (HOP-62 NSCLC): 1.53 µM
TGI (HOP-62 NSCLC): > 25 µM
GI50 (RXF 393 renal): 1.31 µM
TGI (RXF 393 renal): > 15.7 µM
GI50 (NCI-H460 lung): 1.06 µM
TGI (NCI-H460 lung): > 10.5 µM
GI50 (ACHN renal): 6.39 µM
TGI (ACHN renal): > 25 µM
GI50 (HT29 colon): 0.875 µM
TGI (HT29 colon): > 25 µM
GI50 (HCC-2998 colon): 2.29 µM
TGI (HCC-2998 colon): > 25 µM
GI50 (MDA-MB-231 breast): 2.21 µM
TGI (MDA-MB-231 breast): > 21.2 µM
GI50 (UACC-257 melanoma): 3.15 µM
TGI (UACC-257 melanoma): > 25 µM
GI50 (NCI-H226 lung): 7.13 µM
TGI (NCI-H226 lung): > 25 µM
GI50 (PC-3 prostate): 3.43 µM
TGI (PC-3 prostate): > 25 µM
GI50 (MALME-3M melanoma): 2.5 µM
TGI (MALME-3M melanoma): > 25 µM
GI50 (NCI-H23 lung): 1.24 µM
TGI (NCI-H23 lung): > 25 µM
GI50 (DU-145 prostate): 0.935 µM
TGI (DU-145 prostate): > 8.22 µM
GI50 (MDA-MB-435): 0.502 µM
TGI (MDA-MB-435): 1.71 µM
GI50 (KM12 colon): 0.772 µM
TGI (KM12 colon): > 17.5 µM
GI50 (CAKI-1 renal): 8.49 µM
TGI (CAKI-1 renal): > 25 µM
GI50 (NCI-H522 lung): 0.924 µM
TGI (NCI-H522 lung): > 12.5 µM
GI50 (SK-MEL-5 melanoma): 1.94 µM
TGI (SK-MEL-5 melanoma): > 25 µM
GI50 (CCRF-CEM leukemia): 0.806 µM
TGI (CCRF-CEM leukemia): > 25 µM
GI50 (T-47D breast): 6.4 µM
TGI (T-47D breast): > 25 µM
GI50 (SK-MEL-28 melanoma): 7.62 µM
TGI (SK-MEL-28 melanoma): > 25 µM
GI50 (SNB-19 CNS): 3.25 µM
TGI (SNB-19 CNS): > 25 µM
GI50 (MOLT-4 leukemia): 1.07 µM
TGI (MOLT-4 leukemia): > 25 µM
GI50 (SF-295 CNS): 1.59 µM
TGI (SF-295 CNS): > 25 µM
GI50 (786-0 renal): 4.86 µM
TGI (786-0 renal): > 25 µM
GI50 (M14 melanoma): 1.82 µM
TGI (M14 melanoma): > 17.3 µM
GI50 (SR leukemia): 1.48 µM
TGI (SR leukemia): > 25 µM
GI50 (RPMI-8226 leukemia): 3.24 µM
TGI (RPMI-8226 leukemia): > 25 µM
GI50 (SN12C renal): 2.8 µM
TGI (SN12C renal): > 25 µM
GI50 (A498 renal): 1.25 µM
TGI (A498 renal): 16.9 µM
GI50 (IGROV1 ovarian): 2.75 µM
TGI (IGROV1 ovarian): > 25 µM
GI50 (K-562 leukemia): 1.14 µM
TGI (K-562 leukemia): > 25 µM
GI50 (HL-60(TB) leukemia): 0.804 µM
TGI (HL-60(TB) leukemia): 8.73 µM
GI50 (SK-MEL-2 melanoma): 2.08 µM
TGI (SK-MEL-2 melanoma): 17 µM
GI50 (OVCAR-3 ovarian): 0.828 µM
TGI (OVCAR-3 ovarian): > 6.89 µM
GI50 (MCF7 breast): 0.752 µM
TGI (MCF7 breast): > 12.5 µM
GI50 (SK-OV-3 ovarian): 1.81 µM
TGI (SK-OV-3 ovarian): > 20 µM
GI50 (SNB-75 CNS): 5.72 µM
TGI (SNB-75 CNS): > 22.4 µM
GI50 (SW-620 colon): 1.04 µM
TGI (SW-620 colon): > 20.3 µM
GI50 (SF-539 CNS): 1.23 µM
TGI (SF-539 CNS): > 16.8 µM
GI50 (TK-10 renal): 9.21 µM
TGI (TK-10 renal): > 25 µM
GI50 (HCT-15 colon): 1.64 µM
TGI (HCT-15 colon): > 25 µM

— PubChem BioAssay (NCI)
